Results from US20210353658A1, “COMPOSITION AND METHOD OF INHIBITING CORTISONE REDUCTASE” (Amorepacific Corporation, priority 2018, published 2021).

Legend:
[1] = test system: keratinocyte differentiation markers of KRT1 and KRT10; assay: RT-qPCR (TAQMAN real-time PCR) gene expression of keratinocyte differentiation markers in UVB-irradiated NHEK; format: cell-based, human; conditions: compound 10 μg/ml
Method: (§1) Normal human epidermal keratinocytes (NHEK) were cultured in a 6-well plate incubator. Specifically, the normal human epidermal keratinocytes (NHEK) were cultured for 4 days by replacing it with phosphate-buffered saline (PBS) after 24 hours to irradiate UVB (25 mJ/cm^2) and adding cortisone (10 μg/ml) and a compound represented by Chemical Formula 1-1 (glucocerebrosides (soy, 98%), Avanti Polar Lipids, Inc.) to NHEK culture media.
In addition, the normal human epidermal keratinocytes (NHEK) were treated with TRIZOL to separate RNA, which was used to synthesize cDNA through RT-PCR (reverse transcriptional polymerase chain reaction). The synthesized cDNA was used to perform TAQMAN® real-time PCR and measure gene expression amounts of keratinocyte differentiation markers of KRT1 and KRT10, and the results are shown in FIGS. 2 and 3. Referring to FIGS. 2 and 3, in the well to which the compound represented by Chemical Formula 1 (10 μg/ml) was added, the gene expression of the keratinocyte differentiation markers (KRT10, KRT1) inhibited by ultraviolet (UVB) rays in the keratinocytes was increased. […]

[2] = molecular target: T1, 11β-hydroxysteroid dehydrogenase type 1 (Homo sapiens, UniProt P28845); assay: Cortisone reductase activity inhibition: cortisol concentration in the culture solution of UVB-irradiated, cortisone-treated NHEK, by ELISA; format: cell-based; conditions: UVB 25 mJ/cm^2, cortisone 10 μg/ml, compound 10 μg/ml, cultured 4 days, ELISA (FIG. 1)
T1 construct: endogenous in cells; host or cells: normal human epidermal keratinocytes (NHEK), UVB-irradiated
T1 sequence (P28845 whole entry): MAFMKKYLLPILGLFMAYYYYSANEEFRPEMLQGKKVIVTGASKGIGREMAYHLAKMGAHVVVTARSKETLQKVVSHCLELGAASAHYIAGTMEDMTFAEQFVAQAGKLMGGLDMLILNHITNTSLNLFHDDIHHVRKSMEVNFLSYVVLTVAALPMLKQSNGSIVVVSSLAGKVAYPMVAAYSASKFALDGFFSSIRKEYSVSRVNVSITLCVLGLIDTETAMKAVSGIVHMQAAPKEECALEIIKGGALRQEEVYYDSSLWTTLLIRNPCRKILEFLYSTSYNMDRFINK
Method: as §1
Subsequently, the cell culture solution was collected to measure a cortisol concentration in an ELISA method, and the results are shown in FIG. 1. […] Accordingly, a composition including the compound represented by Chemical Formula 1-1 as an active ingredient according to an embodiment turned out to inhibit activity of 11β-hydroxysteroid dehydrogenase type 1 that is cortisone reductase.

CCCCCCCCC/C=C/CC/C=C/[C@@H](O)[C@H](CO[C@@H]1OC(CO)[C@H](O)C(O)C1O)NC(=O)C(O)CCCCCCCCCCCCCC (stereo partly drawn) [Chemical Formula 1-1, glucocerebrosides (soy, 98%)]
gene expression of keratinocyte differentiation marker KRT10 inhibited by UVB ([1]; RT-qPCR (FIG. 2)): increased | gene expression of keratinocyte differentiation marker KRT1 inhibited by UVB ([1]; RT-qPCR (FIG. 3)): increased | cortisol concentration in cell culture solution [2]: greatly did not increase
